“And” between values parts separate entries of the source, which are not always exact repeats. Equal values may be shown once. Toxic doses and inconclusive results are not listed. Cut-off read from the data, not from the text of the source: active = T/C of 150% or more; inactive = T/C below 125%.
System: L1210 leukemia ip in BDF1 mice, survival T/C
Assay: NCI In Vivo Anticancer Drug Screen. Data for tumor model L1210 Leukemia (intraperitoneal) in B6D2F1 (BDF1) mice
Settings: endpoint: mean survival time, higher = longer survival
In short: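 Tumor was transplanted into mice, which were then dosed with test compound or vehicle alone. Survival was recorded for each group, and the treated figure was expressed relative to the control figure.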

[1] = dose: 50.0 mg/kg/injection, schedule: Q01DX009 (ip), vehicle: saline with Tween-80
[2] = dose: 100.0 mg/kg/injection, schedule: Q01DX009 (ip), vehicle: saline with Tween-80
[3] = dose: 200.0 mg/kg/injection, schedule: Q01DX009 (ip), vehicle: saline with Tween-80
[4] = dose: 100.0 mg/kg/injection, schedule: Q04DX003 (ip), vehicle: saline
[5] = dose: 200.0 mg/kg/injection, schedule: Q04DX003 (ip), vehicle: saline
[6] = dose: 400.0 mg/kg/injection, schedule: Q04DX003 (ip), vehicle: saline
[7] = dose: 100.0 mg/kg/injection, schedule: Q04DX003 (ip), vehicle: saline with Tween-80
[8] = dose: 200.0 mg/kg/injection, schedule: Q04DX003 (ip), vehicle: saline with Tween-80
[9] = dose: 400.0 mg/kg/injection, schedule: Q01DX009 (ip), vehicle: saline with Tween-80
[10] = dose: 25.0 mg/kg/injection, schedule: Q04DX003 (ip), vehicle: Klucel (hydroxypropylcellulose) (HPC)
[11] = dose: 25.0 mg/kg/injection, schedule: Q01DX009 (ip), vehicle: saline with Tween-80
[12] = dose: 25.0 mg/kg/injection, schedule: Q04DX003 (ip), vehicle: saline with Tween-80
[13] = dose: 50.0 mg/kg/injection, schedule: Q04DX003 (ip), vehicle: saline with Tween-80
[14] = dose: 100.0 mg/kg/injection, schedule: Q04DX003 (ip), vehicle: Klucel (hydroxypropylcellulose) (HPC)
[15] = dose: 200.0 mg/kg/injection, schedule: Q04DX003 (ip), vehicle: Klucel (hydroxypropylcellulose) (HPC)
[16] = dose: 400.0 mg/kg/injection, schedule: Q04DX003 (ip), vehicle: Klucel (hydroxypropylcellulose) (HPC)
[17] = dose: 100.0 mg/kg/injection, schedule: Q01DX009 (ip), vehicle: saline
[18] = dose: 200.0 mg/kg/injection, schedule: Q01DX009 (ip), vehicle: saline
[19] = dose: 400.0 mg/kg/injection, schedule: Q01DX009 (ip), vehicle: saline

Measured: T/C

c1ccc(-c2cc(-c3ccccc3)c(-c3ccccc3)c(-c3ccccc3)c2-c2ccccc2)cc1
inactive: [1] 87 % of control | [2] 93 % of control | [3] 93 % of control

CC1COC(C(C)C)O1 (configuration not stated)
inactive: dose: 50.0 mg/kg/injection, schedule: Q01DX009 (ip), vehicle: acetone 90 % of control | dose: 100.0 mg/kg/injection, schedule: Q01DX009 (ip), vehicle: acetone 97 % of control | dose: 100.0 mg/kg/injection, schedule: Q04DX003 (ip), vehicle: acetone 95 % of control | dose: 200.0 mg/kg/injection, schedule: Q01DX009 (ip), vehicle: acetone 95 % of control | dose: 200.0 mg/kg/injection, schedule: Q04DX003 (ip), vehicle: acetone 103 % of control | dose: 400.0 mg/kg/injection, schedule: Q04DX003 (ip), vehicle: acetone 90 % of control

CCOC(=O)C1C2c3ccccc3C(C1C(=O)OCC)[n+]1ccccc12 (configuration not stated)
inactive: [4] 100 % of control | [5] 97 % of control | [6] 100 % of control

COc1ccc(C(=O)CC(c2ccc3c(c2)OCO3)c2c(O)c3ccccc3oc2=O)cc1OC (configuration not stated)
inactive: [1] 97 % of control | [2] 96 % of control | [7] 94 % of control | [3] 92 % of control | [8] 102 % of control | [9] 87 % of control | dose: 400.0 mg/kg/injection, schedule: Q04DX003 (ip), vehicle: saline with Tween-80 89 % of control

O=[N+]([O-])c1ccc(S(=O)(=O)C2CCCCC2Cl)cc1 (configuration not stated)
inactive: dose: 100.0 mg/kg/injection, schedule: Q01DX009 (ip), vehicle: Klucel (hydroxypropylcellulose) (HPC) 88 % of control | dose: 200.0 mg/kg/injection, schedule: Q01DX009 (ip), vehicle: Klucel (hydroxypropylcellulose) (HPC) 91 % of control | dose: 400.0 mg/kg/injection, schedule: Q01DX009 (ip), vehicle: Klucel (hydroxypropylcellulose) (HPC) 90 % of control

C=C(C)C1CCC(C)CC1O (configuration not stated)
inactive: [1] 111 % of control | [2] 97 % of control | [3] 108 % of control

CC(=O)[O][Hg][c]1cc(C)cc([N+](=O)[O-])c1O
inactive: dose: 6.25 mg/kg/injection, schedule: Q01DX009 (ip), vehicle: Klucel (hydroxypropylcellulose) (HPC) 94 % of control | dose: 12.5 mg/kg/injection, schedule: Q01DX009 (ip), vehicle: Klucel (hydroxypropylcellulose) (HPC) 100 % of control | dose: 12.5 mg/kg/injection, schedule: Q04DX003 (ip), vehicle: Klucel (hydroxypropylcellulose) (HPC) 100 % of control | dose: 25.0 mg/kg/injection, schedule: Q01DX009 (ip), vehicle: Klucel (hydroxypropylcellulose) (HPC) 92 % of control | [10] 95 % of control

Nn1c(-c2ccccc2)c[n+]2ccccc12
inactive: dose: 75.0 mg/kg/injection, schedule: Q01DX001 (ip), vehicle: other 101 % of control | dose: 150.0 mg/kg/injection, schedule: Q01DX001 (ip), vehicle: other 97 % of control | dose: 300.0 mg/kg/injection, schedule: Q01DX001 (ip), vehicle: other 92 % of control

O=C(Nc1ccc(Br)cc1)c1cc(Br)cc(Br)c1O
inactive: dose: 1.56 mg/kg/injection, schedule: Q04DX002 (ip), vehicle: saline 100 % of control | dose: 3.12 mg/kg/injection, schedule: Q04DX002 (ip), vehicle: saline 100 % of control | dose: 6.25 mg/kg/injection, schedule: Q04DX002 (ip), vehicle: saline 97 % of control | dose: 12.5 mg/kg/injection, schedule: Q04DX002 (ip), vehicle: saline 103 % of control and 107 % of control | dose: 25.0 mg/kg/injection, schedule: Q04DX002 (ip), vehicle: saline 104 % of control and 89 % of control

COC1OC(C(O)CO)C(O)C(O)C1O (configuration not stated)
inactive: [2] 110 % of control | [3] 100 % of control | [9] 104 % of control

COC(=O)Nc1cccc(NC(=O)C(=O)O)c1
inactive: [11] 105 % of control | [12] 107 % of control | [1] 98 % of control | [13] 105 % of control | [2] 102 % of control | [7] 94 % of control and 100 % of control | [8] 105 % of control

Cn1c(=O)c2ccc(C(=O)O)cc2c(=O)n1C
inactive: dose: 12.5 mg/kg/injection, schedule: Q04DX003 (ip), vehicle: saline 97 % of control | dose: 25.0 mg/kg/injection, schedule: Q04DX003 (ip), vehicle: saline 98 % of control | dose: 50.0 mg/kg/injection, schedule: Q04DX003 (ip), vehicle: saline 103 % of control | [4] 106 % of control | [5] 92 % of control | [6] 98 % of control

CCOC(=O)C(=N\Nc1ccc(Cl)cc1Cl)/C(C)=N\NC(N)=S
inactive: dose: 75.0 mg/kg/injection, schedule: Q01DX001 (ip), vehicle: saline 95 % of control | dose: 300.0 mg/kg/injection, schedule: Q01DX001 (ip), vehicle: saline 104 % of control

COC(=O)C1C2CCC3C2C(C)(C)CCCC31C (configuration not stated)
inactive: [14] 98 % of control | [15] 106 % of control | [16] 103 % of control

O=C(O)C(=O)c1ccccc1
inactive: [4] 92 % of control | [5] 91 % of control

O=C(O)CC1(CC(=O)O)C(=O)N(c2ccccc2)c2ccccc21
inactive: dose: 100.0 mg/kg/injection, schedule: Q01DX001 (ip), vehicle: saline with Tween-80 95 % of control | dose: 200.0 mg/kg/injection, schedule: Q01DX001 (ip), vehicle: saline with Tween-80 90 % of control | dose: 400.0 mg/kg/injection, schedule: Q01DX001 (ip), vehicle: saline with Tween-80 97 % of control

CC1CCCCN1P(=[Se])(c1ccccc1)N1CCCCC1C (configuration not stated)
inactive: [10] 97 % of control | dose: 50.0 mg/kg/injection, schedule: Q04DX003 (ip), vehicle: Klucel (hydroxypropylcellulose) (HPC) 103 % of control | [14] 100 % of control and 90 % of control

C/C=C(\C)C(=O)Nc1cccc(OC(=O)NC)c1
inactive: [2] 91 % of control | [3] 88 % of control | [9] 91 % of control

CC(=O)NCCN(C)C
inactive: [17] 97 % of control | [4] 103 % of control | [18] 96 % of control | [5] 101 % of control | [19] 97 % of control | [6] 97 % of control

O=C1NC(=O)C(=Cc2ccccc2)C(=O)N1
inactive: dose: 100.0 mg/kg/injection, schedule: Q04DX002 (ip), vehicle: saline with Tween-80 98 % of control | dose: 200.0 mg/kg/injection, schedule: Q01DX Z (ip), vehicle: methylcellulose (MC) 94 % of control | dose: 200.0 mg/kg/injection, schedule: Q04DX002 (ip), vehicle: saline with Tween-80 106 % of control

CCCCCCCCCCCCCCCCNCCCN
inactive: [7] 98 % of control | [8] 96 % of control

O=C1CCCCCCCCC1O (configuration not stated)
inactive: [2] 120 % of control | [14] 103 % of control | [3] 101 % of control | [18] 114 % of control | [15] 115 % of control | [9] 97 % of control | [19] 105 % of control | [16] 108 % of control
active: [17] 333 % of control

Cc1ccc(N=NN(C)C)cc1
active: dose: 90.0 mg/kg/injection, schedule: Q01DX Z (ip), vehicle: methylcellulose (MC) 165 % of control
inactive: dose: 12.5 mg/kg/injection, schedule: Q01DX009 (ip), vehicle: saline with Tween-80 97 % of control | [11] 103 % of control | [12] 105 % of control | dose: 26.6 mg/kg/injection, schedule: Q01DX Z (ip), vehicle: methylcellulose (MC) 104 % of control | dose: 31.25 mg/kg/injection, schedule: Q01DX001 (ip), vehicle: saline with Tween-80 108 % of control | dose: 40.0 mg/kg/injection, schedule: Q01DX Z (ip), vehicle: methylcellulose (MC) 118 % of control | [1] 103 % of control | [13] 103 % of control | dose: 62.5 mg/kg/injection, schedule: Q01DX001 (ip), vehicle: saline with Tween-80 110 % of control | [2] 104 % of control | [7] 110 % of control | dose: 180.0 mg/kg/injection, schedule: Q01DX Z (ip), vehicle: carboxymethylcellulose (CMC) 102 % of control | [8] 109 % of control

CC1(C)OC(C(O)COC(=O)c2ccc([N+](=O)[O-])cc2)C(C(SCc2ccccc2)SCc2ccccc2)O1 (configuration not stated)
inactive: dose: 100.0 mg/kg/injection, schedule: Q01DX001 (ip), vehicle: carboxymethylcellulose (CMC) 93 % of control | dose: 200.0 mg/kg/injection, schedule: Q01DX001 (ip), vehicle: carboxymethylcellulose (CMC) 89 % of control | dose: 400.0 mg/kg/injection, schedule: Q01DX001 (ip), vehicle: carboxymethylcellulose (CMC) 95 % of control

Source: PubChem BioAssay AID248 (DTP/NCI, 2004)
